Source: patent US5583115A, “Dialkyltiacumicin compounds” (Abbott Laboratories, priority 1995, dated 1996)
In brackets after ≈: the same amount, converted by molar mass. Like-named read-outs stand apart in the source and are kept apart here.

How the values were obtained:
Streptococcus agalactiae = test: MIC agar dilution, aerobic and facultative bacteria; details: Streptococcus agalactiae, 20 h
Providencia stuartii = test: as above; details: Providencia stuartii, 20 h
B. disiens = test: MIC agar dilution, anaerobic bacteria; format: cell-based; details: Prevotella disiens, 20 h
P. anaerobius = test: MIC agar dilution, anaerobic bacteria; format: cell-based; details: Peptostreptococcus anaerobius, 20 h
B. vulgatus = test: MIC agar dilution, anaerobic bacteria; format: cell-based; details: Phocaeicola vulgatus, 20 h
Bacteriodes fragilis = test: MIC agar dilution, anaerobic bacteria; format: cell-based; details: 20 h
S. epidermidis = test: MIC agar dilution, aerobic and facultative bacteria; details: Staphylococcus epidermidis, 20 h
P. cepacia = test: as above; details: Burkholderia cepacia, 20 h
Clostridium difficile = test: In vivo hamster model of pseudomembranous Clostridium difficile induced colitis; details: for % Mortality: days 8-14, expiring by day 20
Procedure: (Suppression of normal gastrointestinal bacteria by the ciprofloxacin permitted the drug-resistant C. difficile to predominate.) Five additional hamsters were segregated as a noninfected control group.
The infected animals were divided into three groups comprising (a) 10 untreated animals; (b) 15 vancomycin-treated animals (5 each at 20, 10 and 1 mg/kg/day orally on days 8-14); and (c) 10 animals treated with the compound of Example 2 (5 each at 10 and 1 mg/kg/day on days 8-14). The subject animals were monitored for (a) body weight (infected hamsters lose significant body mass), and (b) mortality (percent expiring by day 20).

E. coli = test: MIC agar dilution, aerobic and facultative bacteria; format: cell-based; details: Escherichia coli, 20 h, read-out: MIC
Pseudomonas aeruginosa = test: as above
[1] = system: Peptostreptococcus asaccharolyticus; test: MIC agar dilution, anaerobic bacteria; format: cell-based; details: Peptoniphilus asaccharolyticus, 20 h
P. species = test: MIC agar dilution, anaerobic bacteria; format: cell-based; details: 20 h; Culture # 1776; read-out: MIC
Micrococcus luteus = test: MIC agar dilution, aerobic and facultative bacteria; details: Micrococcus luteus, 20 h
[2] = system: Acinetobacter calcoaceticus; test: as above; details: Acinetobacter calcoaceticus, 20 h
Enterobacter aerogenes = test: as above; details: Klebsiella aerogenes, 20 h
C. ramosum = test: MIC agar dilution, anaerobic bacteria; format: cell-based; details: Thomasclavelia ramosa, 20 h
B. loescheii = test: MIC agar dilution, anaerobic bacteria; format: cell-based; details: Hoylesella loescheii, 20 h
Veillonella parvula = test: MIC agar dilution, anaerobic bacteria; format: cell-based; details: Veillonella parvula, 20 h
P. magnus = test: MIC agar dilution, anaerobic bacteria; format: cell-based; details: Finegoldia magna, 20 h
Fusobacterium species = test: MIC agar dilution, anaerobic bacteria; format: cell-based; details: Fusobacterium, 20 h
Streptococcus bovis = test: MIC agar dilution, aerobic and facultative bacteria; details: Streptococcus equinus, 20 h
Propionibacterium acnes = test: MIC agar dilution, anaerobic bacteria; format: cell-based; details: Cutibacterium acnes, 20 h
Fusobacterium nucleatum = test: MIC agar dilution, anaerobic bacteria; format: cell-based; details: Fusobacterium nucleatum, 20 h
S. pyogenes = test: MIC agar dilution, aerobic and facultative bacteria; details: Streptococcus pyogenes, 20 h
B. bivius = test: MIC agar dilution, anaerobic bacteria; format: cell-based; details: Prevotella bivia, 20 h
B. thetaiotaomicron = test: MIC agar dilution, anaerobic bacteria; format: cell-based
Clostridium perfringens = test: microbe, parasite or virus in culture; format: cell-based; details: Clostridium perfringens, 20 h
Klebsiella pneumoniae = test: MIC agar dilution, aerobic and facultative bacteria; details: Klebsiella pneumoniae, 20 h
Staphylococcus aureus = test: as above; details: Staphylococcus aureus, 20 h
Enterococcus faecium = test: as above; details: Enterococcus faecium, 20 h
C. difficile = test: MIC agar dilution, anaerobic bacteria; format: cell-based; details: Clostridioides difficile, 20 h

## CN[C@H](CC(C)C)C(=O)N[C@H]1C(=O)N[C@@H](CC(N)=O)C(=O)N[C@H]2C(=O)N[C@H]3C(=O)N[C@H](C(=O)N[C@H](C(=O)O)c4cc(O)cc(O)c4-c4cc3ccc4O)[C@H](O)c3ccc(c(Cl)c3)Oc3cc2cc(c3O[C@@H]2O[C@H](CO)[C@@H](O)[C@H](O)[C@H]2O[C@H]2C[C@](C)(N)[C@H](O)[C@H](C)O2)Oc2ccc(cc2Cl)[C@H]1O [Vancomycin]
Streptococcus agalactiae
  MIC: 3.1 µg/mL (≈ 2.14 µM)
Providencia stuartii
  MIC: > 200 µg/mL
B. disiens
  MIC: 32 µg/mL (≈ 22.1 µM)
P. anaerobius
  MIC: 0.5 µg/mL (≈ 0.345 µM)
B. vulgatus; Culture # 2481
  MIC: 64 µg/mL (≈ 44.2 µM)
B. vulgatus; Culture # 1762
  MIC: 32 µg/mL (≈ 22.1 µM)
Bacteriodes fragilis; Culture # 1756, Wilkins-Chalgren agar, 37° C., 48 hours
  MIC: 32 µg/mL (≈ 22.1 µM)
Bacteriodes fragilis; Culture # 1757
  MIC: 32 µg/mL (≈ 22.1 µM)
Bacteriodes fragilis; Culture # 1758
  MIC: 16 µg/mL (≈ 11 µM)
S. epidermidis
  MIC: 3.1 µg/mL (≈ 2.14 µM)
P. cepacia
  MIC: > 200 µg/mL
Clostridium difficile; 1 mg/kg versus 10 or 20 mg/kg
  rapidity of mortality: more rapid mortality than hamsters treated at 10 or 20 mg/kg
Clostridium difficile; 1 mg/kg/day
  % Mortality: 100%
Clostridium difficile; 10 mg/kg/day
  % Mortality: 100%
Clostridium difficile; 20 mg/kg/day, orally
  % Mortality: 100%
E. coli; DC-2, Culture # 1674
  MIC: > 200 µg/mL
E. coli; H560, Culture # 1675
  MIC: > 200 µg/mL
E. coli; Juhl, Culture # 1673
  MIC: > 200 µg/mL
E. coli; KNK437, Culture # 1676
  MIC: > 200 µg/mL
E. coli; SS, Culture # 2489
  MIC: 50 µg/mL (≈ 34.5 µM)
Pseudomonas aeruginosa; Culture # 1680
  MIC: > 200 µg/mL
Pseudomonas aeruginosa; Culture # 1681
  MIC: > 200 µg/mL
Pseudomonas aeruginosa; Culture # 1682
  MIC: > 200 µg/mL
Pseudomonas aeruginosa; Pseudomonas aeruginosa, 20 h
  MIC: > 200 µg/mL
Pseudomonas aeruginosa; cipro R, Culture # 1919
  MIC: > 200 µg/mL
Pseudomonas aeruginosa; cipro R, Culture # 1920
  MIC: > 200 µg/mL
[1]
  MIC: 1 µg/mL (≈ 0.69 µM)
P. species
  MIC: 1 µg/mL (≈ 0.69 µM)
Micrococcus luteus; Culture # 2493
  MIC: 0.78 µg/mL (≈ 0.538 µM)
Micrococcus luteus; Culture # 2517
  MIC: 3.1 µg/mL (≈ 2.14 µM)
[2]
  MIC: > 200 µg/mL
Enterobacter aerogenes
  MIC: > 200 µg/mL
C. ramosum
  MIC: 8 µg/mL (≈ 5.52 µM)
B. loescheii
  MIC: 32 µg/mL (≈ 22.1 µM)
Veillonella parvula
  MIC: > 64 µg/mL
P. magnus
  MIC: 0.5 µg/mL (≈ 0.345 µM)
Fusobacterium species
  MIC: > 64 µg/mL
Streptococcus bovis
  MIC: 0.78 µg/mL (≈ 0.538 µM)
Propionibacterium acnes
  MIC: 0.5 µg/mL (≈ 0.345 µM)
Fusobacterium nucleatum
  MIC: > 64 µg/mL
S. pyogenes; Culture # 1671
  MIC: 3.1 µg/mL (≈ 2.14 µM)
S. pyogenes; const., Culture # 1672
  MIC: 0.78 µg/mL (≈ 0.538 µM)
S. pyogenes; inducible, Culture # 2548
  MIC: 0.78 µg/mL (≈ 0.538 µM)
B. bivius
  MIC: 32 µg/mL (≈ 22.1 µM)
B. thetaiotaomicron; Bacteroides thetaiotaomicron, 20 h, Culture # 1764, read-out: MIC
  MIC: > 64 µg/mL
B. thetaiotaomicron; Culture # 1765
  MIC: > 64 µg/mL
B. thetaiotaomicron; Culture # 1766
  MIC: > 64 µg/mL
Clostridium perfringens; Culture # 1771
  MIC: > 64 µg/mL
Clostridium perfringens; Culture # 1772
  MIC: 0.5 µg/mL (≈ 0.345 µM)
Clostridium perfringens; Culture # 1773
  MIC: 1 µg/mL (≈ 0.69 µM)
Klebsiella pneumoniae
  MIC: > 200 µg/mL
Staphylococcus aureus; Culture # 1662, brain heart infusion agar, 37° C.
  MIC: 3.1 µg/mL (≈ 2.14 µM)
Staphylococcus aureus; Culture # 1664
  MIC: 1.56 µg/mL (≈ 1.08 µM)
Staphylococcus aureus; Culture # 1690
  MIC: 1.56 µg/mL (≈ 1.08 µM)
Staphylococcus aureus; Culture # 2124
  MIC: 3.1 µg/mL (≈ 2.14 µM)
Staphylococcus aureus; Culture # 2130
  MIC: 3.1 µg/mL (≈ 2.14 µM)
Staphylococcus aureus; Culture # 2498
  MIC: 3.1 µg/mL (≈ 2.14 µM)
Staphylococcus aureus; cipro res., Culture # 3384
  MIC: 1.56 µg/mL (≈ 1.08 µM)
Enterococcus faecium
  MIC: 3.1 µg/mL (≈ 2.14 µM)
C. difficile; Culture # 1496
  MIC: 0.5 µg/mL (≈ 0.345 µM)
C. difficile; Culture # 1497
  MIC: 0.5 µg/mL (≈ 0.345 µM)
C. difficile; Culture # 1774
  MIC: 2 µg/mL (≈ 1.38 µM)
C. difficile; Culture # 2025
  MIC: 0.5 µg/mL (≈ 0.345 µM)
C. difficile; Culture # 2480
  MIC: > 64 µg/mL
C. difficile; Culture # 2528
  MIC: 1 µg/mL (≈ 0.69 µM)
C. difficile; Culture # 2529
  MIC: 1 µg/mL (≈ 0.69 µM)
